Patent US20100255054A1, “PHARMACEUTICAL COMPOSITION FOR TREATMENT AND PREVENTION OF RESTENOSIS” (priority 2006, published 2010)

Tests used:
[1] = test system: vascular smooth muscle cells; assay: Vascular smooth muscle cell proliferation (PDGF-induced, WST cell counting kit); format: cell-based, rat
Description: For vascular smooth muscle cell cultivation, vascular smooth muscle cells were isolated from rat aorta and they were primarily cultured. The vascular smooth muscle cells were cultured and grown in a culture solution containing 20% fetal bovine serum (FBS) at 37° C. under 5% CO2. The cells obtained in this process were transferred to a new culture plate for experiments. The cells used in the experiments were initial cells which had been subcultured 4 to 7 times. In order to activate NQO1, the vascular smooth muscle cells, when the cell mass reached 80 to 90%, were cultured in a medium containing 0.5% fetal bovine serum for 24 hours to keep the cells in the resting state. […]
Primary cultures of vascular smooth muscle cells were seeded onto 96-well plates, cultured to reach cell mass of 70%, and transferred and again cultured in a medium containing 0.5% fetal bovine serum for 24 hours. […] After further reacting for 4 hours, absorbencies were measured at 450 nm using an ELISA reader to examine the cell proliferation rate.
In order to determine the effects of Compound 1 on vascular smooth muscle cell proliferation, the cells cultured in a 96-well plate were kept in the resting state, followed by pre-treating them with Compound 1 by varying the concentration, and by reacting them with PDGF for 48 hours. The number of living cells was counted using a WST cell counting kit. […]

[2] = test system: rats; assay: Lipogenesis in vessels (Oil Red O staining of aortic valve and abdominal aorta); format: in vivo, rat
Description: The animals were killed to isolate their hearts and abdominal aortas, and they were fixed in 4% formalin, respectively. The fixed heart tissue was immersed in an isotonic sucrose solution, and then stored in a freezer by embedding in an OCT compound. Meanwhile, the fixed abdominal aorta was incised lengthwise and prepared such that the internal vessel was exposed. The frozen heart tissue was sectioned into a thickness of 20 μm and attached onto a coating slide, while the abdominal aorta was immersed in an Oil Red O solution to perform Oil Red O staining, and they were observed.
Rats administered with 25 mg/kg and 50 mg/kg of Compound 1, respectively, for 4 weeks had been killed, and their hearts and abdominal aortas were extracted to prepare frozen sections. The prepared sections were stained with Oil Red O, and a degree of lipid accumulation on the inner vessel wall and aortic valve was compared/observed.
A (upper part of FIG. 7) is an aortic valve and B (bottom part of FIG. 7) is an abdominal aorta. The experiments were repeated three times to confirm the results.

[3] = test system: vascular smooth muscle cells; assay: Cell cycle analysis by FACS (PI staining); format: cell-based, rat; details: 0.5 μM Compound 1 + PDGF and insulin, 48 hours (PDGF and insulin only: 57%), FIG. 5C
Description: (§1) For vascular smooth muscle cell cultivation, vascular smooth muscle cells were isolated from rat aorta and they were primarily cultured. The vascular smooth muscle cells were cultured and grown in a culture solution containing 20% fetal bovine serum (FBS) at 37° C. under 5% CO2. The cells obtained in this process were transferred to a new culture plate for experiments. The cells used in the experiments were initial cells which had been subcultured 4 to 7 times. In order to activate NQO1, the vascular smooth muscle cells, when the cell mass reached 80 to 90%, were cultured in a medium containing 0.5% fetal bovine serum for 24 hours to keep the cells in the resting state. Such cells were treated with the compound of Example 1 (hereinafter, referred to as Compound 1).
FACS was used for cell cycle analysis. The vascular smooth muscle cells incubated in a medium containing 0.5% fetal bovine serum for 24 hours were pretreated with Compound 1 for 2 hours. The cells were treated with PDGF and insulin to induce cell proliferation and reacted for 48 hours. Thereafter, the cells were collected and passed through fixation process, followed by nuclear staining with propidium iodide (PI). Then, the cell cycle was analyzed using FACS.
Primary cultures of vascular smooth muscle cells were treated with 0.5 μM of Compound 1, followed by reacting with PDGF and insulin for 48 hours. […]

[4] = test system: cyclin E; assay: Western blot of cyclin E expression in vascular smooth muscle cells; format: cell-based, rat; details: 0.5 μM, compared with the control group, FIG. 4B
Description: as §1
(§2) The vascular smooth muscle cells collected after reacting with Compound 1 were lysed in RIPA buffer (50 mM Tris-HCl, 150 mM NaCl, 5 mM EDTA, 1% NP-40, 1 mM PMSF, 1 mM […], and 1 mg/ml protease inhibitor) to isolate whole proteins. The isolated proteins of each sample were quantified. 25 μg of the proteins were mixed with a sample buffer and boiled for 5 minutes. The boiled proteins were cooled and subjected to electrophoresis on a sodium dodecyl sulfate polyacrylamide gel, thereby separating the proteins by their sizes. […]

[5] = test system: SD rats; assay: Intimal hyperplasia after balloon angioplasty (H&E staining); format: in vivo, rat; details: 100 mg/kg in diet
Description: SD rats were used for performing balloon angioplasty. Animals were housed in a breeding room maintained at a constant temperature of 22±2° C. and a 12-h light/dark (UD) cycle. The animals were divided into two groups, i.e., a control group with administration of general diet and an experiment group with administration of 100 mg/kg of Compound 1, having 4 animals in each group. The 4 animals in each group were raised in separate cages for each animal for 4 weeks, during which experiments were carried out. The animals were raised for 2 weeks before performing balloon angioplasty and 2 weeks after performing balloon angioplasty while continuing the dietary intake of the general diet and Compound 1 diet. Thereafter, their aortas were isolated to confirm hyoerplasia by means of H&E (hematoxylin and eosin) staining.
14 days after performing balloon angioplasty, the carotid artery was extracted from a rat. After staining the carotid artery by H&E staining, vessel intimal hyperplasia was observed. The results are presented in FIG. 6. a is a control group, b is a vessel intima after performing balloon angioplasty in the general dietary group, c is a vessel intima after performing balloon angioplasty in the 100 mg/kg of Compound 1 administration group, and d is a control group in the 100 mg/kg of Compound 1 administration group, without performing balloon angioplasty.

[6] = test system: cyclin dependent kinase (CDK); assay: Western blot of CDK in vascular smooth muscle cells; format: cell-based, rat; details: 0.5 μM, FIG. 4B
Description: as §1, §2

[7] = test system: p21; assay: Western blot of p21 expression in vascular smooth muscle cells; format: cell-based, rat; details: 0.5 μM, FIG. 4A
Description: as §1, §2

[8] = test system: cyclin D; assay: Western blot of cyclin D expression in vascular smooth muscle cells; format: cell-based, rat; details: 0.5 μM, compared with the control group, FIG. 4B
Description: as §1, §2

[9] = test system: p53; assay: Western blot of p53 expression in vascular smooth muscle cells; format: cell-based, rat; details: 0.5 μM, FIG. 4A
Description: as §1, §2

[10] = test system: NQO1; assay: RT-PCR of NQO1 expression in vascular smooth muscle cells; format: cell-based, rat; details: 0.5 μM, compared with the control group, FIG. 2
Description: A study was conducted to investigate effects of Compound 1 on the expression of NQ01 as in the following. Primary cultures of vascular smooth muscle cells were kept in the resting state and then treated with 0.5 μM of Compound 1. After reacting them for a predetermined period of time, RNA was extracted from the cells using trizol. Thereafter, DNA was amplified using NQO1 primer and then subjected to electrophoresis to confirm the expression level of NQO1.

[11] = test system: AMPK; assay: Western blot of phosphorylated AMPK in vascular smooth muscle cells; format: cell-based, rat; details: 0.5 μM
Description: as §1
The vascular smooth muscle cells collected after reacting with Compound 1 were lysed in RIPA buffer (50 mM Tris-HCl, 150 mM NaCl, 5 mM EDTA, 1% NP-40, 1 mM PMSF, 1 mM […], and 1 mg/ml protease inhibitor) to isolate whole proteins. The isolated proteins of each sample were quantified. 25 μg of the proteins were mixed with a sample buffer and boiled for 5 minutes. The boiled proteins were cooled and subjected to electrophoresis on a sodium dodecyl sulfate polyacrylamide gel, thereby separating the proteins by their sizes. These proteins were again transferred to PVDF membrane and immunoreacted with antibodies against pAMPK, pACC, p53, p21, CDK and pRb to confirm the protein expression. In addition, in order to verify whether an equal amount of protein was used, the proteins were reacted with anti-β-actin.
Primary cultures of vascular smooth muscle cells were kept in the resting state and then treated with 0.5 μM of Compound 1. After reacting them for a predetermined period of time, the cells were collected to perform western blot. Quantification was carried out using antibodies specific for phosphorylated AMPK and Acetyl-CoA carboxylase (ACC), and for β-actin. The results were confirmed through three or more repeating experiments.

[12] = test system: cyclin B; assay: Western blot of cyclin B expression in vascular smooth muscle cells; format: cell-based, rat; details: 0.5 μM, compared with the control group, FIG. 4B
Description: as §1, §2

[13] = test system: Acetyl-CoA carboxylase (ACC); assay: Western blot of phosphorylated ACC in vascular smooth muscle cells; format: cell-based, rat; details: 0.5 μM, compared with the control group, FIG. 3
Description: as §1
as §2, with “minutes.” for “minutes. The boiled proteins were cooled and subjected to electrophoresis on a sodium dodecyl sulfate polyacrylamide gel, thereby separating the proteins by their sizes.”
Primary cultures of vascular smooth muscle cells were kept in the resting state and then treated with 0.5 μM of Compound 1. […] Quantification was carried out using antibodies specific for phosphorylated AMPK and Acetyl-CoA carboxylase (ACC), and for β-actin. […]

CC1(C)CCC2=C(O1)c1ccccc1C(=O)C2=O [Compound 1, β-lapachone]
concentration dependence of the reduction in the number of vascular smooth muscle cells ([1]; Compound 1 pre-treatment at varying concentration, PDGF 48 hours): concentration-dependent
number of vascular smooth muscle cells (living cells) ([1]; PDGF + Compound 1 compared with PDGF only, 48 hours, FIG. 1): significantly low
lipogenesis in aortic valve and abdominal aorta ([2]; 25 mg/kg and 50 mg/kg for 4 weeks, Oil Red O, FIG. 7): inhibited
blood flow level in the heart and abdominal aorta ([2]; about 50 mg/kg for 4 weeks): approximately the same as that of the normal rats
G1 phase (percentage of cells) [3]: 62%
expression level of cyclin E [4]: significantly low
intima/media ratio ([5]; 14 days after balloon angioplasty (general dietary group: 2.5)): 1
intimal hyperplasia in the vessel ([5]; 14 days after balloon angioplasty, FIG. 6 c): low rate of intimal hyperplasia
CDK activation [6]: activated through phosphorylation
expression of p21 [7]: increased in a great amount
expression level of cyclin D [8]: significantly low
expression level of p53 [9]: did not increase largely
expression level of NQO1 [10]: significantly higher
time after treatment at which phosphorylated AMPK could be observed [11]: 1 h
time for which phosphorylated AMPK lasted [11]: 6 h
AMPK phosphorylation ([11]; compared with the control group, FIG. 3): increased
expression level of cyclin B [12]: significantly low
ACC phosphorylation [13]: decreased
